Source: ChEMBL document CHEMBL1148837, “Development of new pyrrolopyrimidine-based inhibitors of Janus kinase 3 (JAK3)” (Bioorg Med Chem Lett, 2007)
pIC50: −log10 of the molar value.

Legend:
TF-1 [1] = assay: cells; format: functional, cell-based; settings: Homo sapiens
Description: Inhibition of IL4-induced TF1 cell proliferation

TF-1 [2] = assay: cells; format: functional, cell-based; settings: Homo sapiens; remark: listed apart in the source
Description: Inhibition of IL3-induced TF1 cell proliferation

| SMILES | pIC50 (TF-1 [1]) | pIC50 (TF-1 [2]) |
| --- | --- | --- |
| COC[C@H](C)Nc1nc(-n2cnc3ccncc32)nc2c1cc(C(=O)N1CCN(C)CC1)n2C | 5.94 | 5.32 |
| C[C@H](Nc1nc(-n2cnc3ccncc32)nc2c1cc(C(=O)N1CCN(C)CC1)n2C)c1ccccc1 | 7.10 | 7.05 |
| C[C@H](Nc1nc(-n2cnc3ccncc32)nc2c1cc(C(=O)NCCN(C)C)n2C)c1ccccc1 | 6.34 | 5.71 |
| C[C@H](Nc1nc(-n2cnc3ccncc32)nc2c1cc(C(=O)NCCCN1CCOCC1)n2C)c1ccccc1 | 6.04 | 5.55 |
| C[C@H](Nc1nc(-n2cnc3ccncc32)nc2c1cc(C(=O)N1CCOCC1)n2C)c1ccccc1 | 6.17 | 5.85 |
| CONC(=O)c1cc2c(N[C@@H](C)c3ccccc3)nc(-n3cnc4ccncc43)nc2n1C | 6.35 | 6.13 |
| COc1ccc(Cl)c(Nc2nc(-n3cnc4ccncc43)nc3c2cc(C(=O)N2CCN(C)CC2)n3C)c1 | 6.31 | 5.66 |
